{"source": "patent US9018195B2", "about": "“Use of 2,5-dihydroxybenzene sulfonic acid compounds for treating skin photoaging” (AmDerma Pharmaceuticals, LLC, priority 2004, dated 2015)", "key": {"hair growth": {"test_system": "hair growth", "assay": "Effect of topical cream on hair growth", "type": "in vivo, human", "settings": "5% cream, potassium salt, twice a day for 3 months", "source_text": "2,5-dihydroxybenzenesulfonic acid, potassium salt, formulated in the form of cream was used and its composition was the same as that used in example 1."}, "viral warts": {"test_system": "viral warts", "assay": "Topical treatment of viral warts", "type": "in vivo, human", "settings": "5% cream, twice a day for 11 days", "source_text": "(§1) Topical treatment with the above described cream (twice a day for 11 days) of human skin (basal conditions shown in FIG. 2A) results in a reduction of seborrheic keratosis (big circle) as well as of viral warts (small circle), as shown in FIG. 2B."}, "seborrheic keratosis": {"test_system": "seborrheic keratosis", "assay": "Topical treatment of seborrheic keratosis", "type": "in vivo, human", "source_text": "as §1\nAnother example of the effect of 2,5-dihydroxybenzenesulfonate on seborrheic keratosis is shown in FIG. 3, wherein the seborrheic keratosis is reduced due to the topical treatment on the affected area for 4 weeks, twice a day, with an emulsion containing the 2,5-dihydroxybenzenesulfonic acid, 2.5% by weight."}, "[1]": {"test_system": "cell line of preadipocytes 3T3L1", "assay": "Adipogenesis assay in preadipocytes, Oil Red O staining", "type": "cell-based", "procedure": "The preadipocytes were seeded in a 6 well plate where they grew up to the confluence In a standard culture medium [Dulbecco's Essential Medium (DEM)], supplemented with 1.5 g/L of sodium bicarbonate, non essential aminoacids and 10% bovine fetal serum. […] The culture medium was renewed every two days. After seven days, the differentiation to adipocytes was initiated in the six wells by the addition of dexametasone ([…]), 3-isobutyl-1-methylxanthine (0.5 mM) and insuline (160 nM) during two days, followed by the substitution of the culture medium by another culture medium containing insuline (160 nM) during five days. […] The culture medium was renewed every two days.\n12 days later, the adipogenesis was determined by staining with Oil Red O to check the cytoplasmic accumulation of triglycerides. The cells were washed with phosphate buffer (PBS), fixed with 4% paraformaldehyde and stained during thirty minutes with Oil Red O. Isopropanol was used to remove the dye from the cells to quantify the accumulation of lipids; the absorbance thereof was measured at 510 nm in a spectrophotometer."}, "actinic keratosis": {"test_system": "actinic keratosis", "assay": "Topical treatment of actinic keratosis lesions in patients", "type": "in vivo, human", "settings": "for actinic keratosis: 2.5% by weight emulsion, twice a day, two lesions in the same patient (scalp)", "source_text": "An emulsion containing 2.5% by weight of 2,5-dihydroxybenzenesulfonic acid was used to treat two lesions of actinic keratosis in the same patient, as shown in FIGS. 4 and 5. […] Calcium salt of 2,5-dihydroxybenzenesulfonic acid was used.\n(§2) In this study, 2,5-dihydroxybenzenesulfonic acid, potassium salt, formulated as 5% by weight in the form of cream has been used, since this type of formulation is a habitual procedure for topical treatments of the skin. Distilled water has been used as the aqueous phase of the cream. The oil phase thereof may comprise cetyl alcohol, stearyl alcohol or vaseline. Span (sorbitan monooleate) is an effective emulsifier to make the cream.\nActive principle: 2,5-dihydroxybenzenesulfonic acid, potassium salt, 5% by weight.\nExcipients: cetyl alcohol (2.5%), stearyl alcohol (2.5%), liquid vaseline (30%), white soft vaseline (20%), sorbitan monooleate (5%) and distilled water (q.s. to 100 g)."}, "human photoaged skin": {"test_system": "human photoaged skin", "assay": "Topical treatment of human photoaged skin with cream", "type": "in vivo", "settings": "5% cream, potassium salt, twice a day for 3 months", "source_text": "as §2\nActive principle: 2,5-dihydroxybenzenesulfonic acid, potassium salt, 5% by weight. Excipients: cetyl alcohol (2.5%), stearyl alcohol (2.5%), liquid vaseline (30%), white soft vaseline (20%), sorbitan monooleate (5%) and distilled water (q.s. to 100 g).\nLightening of skin hyperpigmentation after the application of 2,5-dihydroxybenzenesulfonic acid may justify the use thereof to treat melanic dyschromia with hyperpigmentation as occurs, among other pathologies, in the Mongolian spot, the nevus of Ota, the nevus of Ito, the nevus of Becker, ephelides (freckles), the lentigo malign melanoma, the café-au-lait macules or the melasma (chloasma)."}, "[2]": {"target": "T1, fibroblast growth factor-1 (FGF-1) (Homo sapiens, UniProt P05230)", "T1 construct": "host or cells: added to Balb/c 3T3 fibroblast cultures", "T1 sequence (P05230 whole entry, species assumed)": "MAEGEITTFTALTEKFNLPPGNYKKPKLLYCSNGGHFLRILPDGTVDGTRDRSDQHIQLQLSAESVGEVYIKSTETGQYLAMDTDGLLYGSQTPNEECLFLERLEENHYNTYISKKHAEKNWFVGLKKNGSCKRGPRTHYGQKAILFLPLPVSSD", "assay": "Structural interaction with FGF-1 from diffraction of complex crystals", "type": "binding", "settings": "electron density contoured at 1σ; acetoxyl groups kept when bound", "procedure": "As of the diffraction from complex crystals of FGF-1: 2-acetoxy-5-hydroxybenzenesulfonic acid, FGF-1: 5-acetoxy-2-hydroxybenzenesulfonic acid and FGF-1: 2,5-diacetoxybenzenesulfonic acid, the complex structures were calculated and represented. In FIGS. 20, 21 and 22, representing the surface of the protein cloured according to its electrostatic potential (light grey: negative charge, dark grey: positive charge, white: areas with no charge), the interaction form of the 2-acetoxy-5-hydroxybenzenesulfonic acid, 5-acetoxy-2-hydroxybenzenesulfonic acid and 2,5-diacetoxybenzenesulfonic acid, respectively, with the FGF-1 may be observed."}, "[3]": {"target": "T1, fibroblast growth factor-1 (FGF-1)", "assay": "Inhibition of fibroblast mitogenesis induced by FGF-1 in quiescent Balb/c 3T3 cultures", "type": "cell-based", "settings": "quiescent cultures of Balb/c 3T3 fibroblasts; potassium salts, 2-acetoxy-5-hydroxybenzenesulfonate as calcium salt", "procedure": "The evaluated compounds were used in the form of potassium salt, except in the first case in which calcium salt was used. The experiments were carried out as described in Fernández-Tornero C et al. J Biol Chem, 2003."}, "mouse glioma C6 cells": {"test_system": "mouse glioma C6 cells", "assay": "Proliferation of glioma C6 cells, crystal violet", "type": "cell-based", "settings": "500 μM, 48 hours, potassium salts, p<0.001", "procedure": "The cell line used was that of mouse glioma C6 cells. Once attached, the cells were treated o not treated (controls) with (5A-2HBS) (500 μM) or (2A-5HBS) (500 μM) and they were allowed to proliferate during 48 hours. After that, the proliferation of glioma cells was evaluated by staining the fixed cells with crystal violet. The number of cells is proportional to the amount of retained dye, which was spectrophotometrically determined by measuring absorbance at 595 nm after removing the dye from the cells."}, "[4]": {"test_system": "rabbit subcutaneous fat preadipocytes", "assay": "Proliferation of subcutaneous fat preadipocytes, crystal violet", "type": "cell-based", "settings": "72 hours", "procedure": "The primary cultures of rabbit preadipocytes were obtained from the inguinal fat of New Zealand rabbits. Once the fat is removed, it is processed by mechanical disaggregation and enzymatic digestion with 0.075% type I collagenase (Gibco BRL, Paisley, Scotland, RU) for 30 minutes at 37°. The mature adipocytes are separated, removed by centrifugation (300×g, 5 min) and the cell sediment is selected. Then, the mononuclear cells with low cell density are isolated by density gradient centrifugation with Ficoll-Paque (Amersham Biosciences, Uppsala, Sweden). Once the low density mononuclear cells are obtained, they are seeded in a 75 cm^2 culture flask and cultured in an incubator at 37° C. with air containing 5% CO2, in an Eagle medium modified by Dulbecco (DMEM) (Gibco) with 10% of bovine fetal serum (Gibco) and 0.1% of antibiotic-antimicotic (Gibco). The culture medium is replaced 24 hours later to remove the cells present in the supernatant, and to select the cells adhered to the culture flask. […]\nThe rabbit preadipocytes proliferation experiments were carried out in 24-well plates. […] The proliferation of preadipocytes was evaluated 72 hours later, and at that moment the cells were fixed with 1% glutaraldehyde. The cellular proliferation was evaluated using the crystal violet method, by measuring the absorbance at a wave length of 595 nm."}}}
{"compound": "O=S(=O)(O)c1cc(O)ccc1O", "note": "[2,5-dihydroxybenzenesulfonic acid]", "values": [{"measurement": "hair in the area of application", "setting": "hair growth", "result": "disappearance of hair in the area of application"}, {"measurement": "viral warts", "setting": "viral warts", "result": "reduction"}, {"measurement": "seborrheic keratosis", "setting": "seborrheic keratosis; 2.5% by weight emulsion, twice a day for 4 weeks, facial", "result": "reduced"}, {"measurement": "seborrheic keratosis", "setting": "seborrheic keratosis; 5% cream, twice a day for 11 days", "result": "reduction in the seborrheic keratosis"}, {"measurement": "number of preadipocytes differentiated in adipocytes", "setting": "[1]; 3T3-L1 cells, 25 μM, during 12 hours (so in the source)", "result": "very significant reduction"}, {"measurement": "actinic keratosis lesion in the ear", "setting": "actinic keratosis; 5% cream, topical, after 12 days", "result": "reduction of the actinic keratosis"}, {"measurement": "actinic keratosis lesion in the ear", "setting": "actinic keratosis; 5% cream, topical, after 15 days", "result": "the lesion was cleared"}, {"measurement": "actinic keratosis lesion in the nose", "setting": "actinic keratosis; 5% cream, topical, after 30 days", "result": "reduction of the actinic keratosis"}, {"measurement": "actinic lentigo areas of photoaged skin", "setting": "human photoaged skin", "result": "disappearance of actinic lentigo areas"}, {"measurement": "wrinkles of photoaged skin", "setting": "human photoaged skin", "result": "reduction of the wrinkles"}]}
{"compound": "O=C(O)c1cc(O)ccc1O", "note": "[gentisic acid, 2,5-dihydroxybenzoic acid]", "values": [{"measurement": "accumulation of triglycerides (percentage of absorbance at 510 nm) versus untreated cells", "setting": "[1]; 50 μM, p<0.05", "result": "significantly smaller"}, {"measurement": "differentiation of the preadipocytes and adipogenesis", "setting": "[1]; 3T3-L1 preadipocytes, 50 μM, two weeks", "result": "inhibits the differentiation of the preadipocytes and the adipogenesis"}]}
{"compound": "CC(=O)Oc1ccc(O)c(S(=O)(=O)[O-])c1.[K+]", "note": "[5A-2HBS, potassium 5-acetoxy-2-hydroxybenzenesulfonate]", "values": [{"measurement": "location of the compound bound to FGF-1 in the complex crystal", "setting": "[2]", "result": "located at a site very close to the site that, as described, is occupied by the 2,5-dihydroxybenzenesulfonic acid"}, {"measurement": "FGF-1 induced mitogenesis", "setting": "[3]", "result": "Inhibition of FGF-1 mitogenesis was observed"}, {"measurement": "proliferation of glioma cells (absorbance at 595 nm)", "setting": "mouse glioma C6 cells", "result": "caused the inhibition of the proliferation"}]}
{"compound": "CC(=O)Oc1ccc(O)cc1S(=O)(=O)O", "note": "[2A-5HBS, 2-acetoxy-5-hydroxybenzenesulfonic acid]", "values": [{"measurement": "location of the compound bound to FGF-1 in the complex crystal", "setting": "[2]", "result": "located at a site very close to the site that, as described, is occupied by the 2,5-dihydroxybenzenesulfonic acid"}, {"measurement": "FGF-1 induced mitogenesis", "setting": "[3]", "result": "Inhibition of FGF-1 mitogenesis was observed"}, {"measurement": "proliferation of glioma cells (absorbance at 595 nm)", "setting": "mouse glioma C6 cells", "result": "caused the inhibition of the proliferation"}, {"measurement": "concentration as of which a significant effect on preadipocyte proliferation is obtained", "setting": "[4]", "result": 100, "unit": "µM"}, {"measurement": "proliferation of preadipocytes (absorbance at 595 nm)", "setting": "[4]; DHBS 10 to 100 μM, 2A-5HBS 10 to 500 μM, concentration dependent", "result": "significantly inhibited"}]}
{"compound": "CC(=O)Oc1ccc(OC(C)=O)c(S(=O)(=O)[O-])c1.[K+]", "note": "[DABS, potassium 2,5-diacetoxybenzene sulfonate]", "values": [{"measurement": "location of the compound bound to FGF-1 in the complex crystal", "setting": "[2]", "result": "located at a site very close to the site that, as described, is occupied by the 2,5-dihydroxybenzenesulfonic acid"}, {"measurement": "FGF-1 induced mitogenesis", "setting": "[3]", "result": "Inhibition of FGF-1 mitogenesis was observed"}]}
{"compound": "calcium 2,5-dihydroxybenzenesulfonate", "values": [{"measurement": "actinic keratosis", "setting": "actinic keratosis; after 4 weeks", "result": "the effect was even more evident"}, {"measurement": "actinic keratosis", "setting": "actinic keratosis; after 15 days", "result": "clearly reduced"}]}
{"compound": "O=S(=O)([O-])c1cc(O)ccc1O.[K+]", "note": "[potassium 2,5-dihydroxybenzenesulfonate]", "values": [{"measurement": "FGF-1 induced mitogenesis", "setting": "[3]", "result": "Inhibition of the mitogenesis"}]}
